Structures can show the parent of a compound that is named as a salt. Where two headings read alike, the source gives them in different places.
Tests used:
[1] = system: BdC9 line of B. divergens; experiment: Inhibitor susceptibility dose-response assay (SYBR-Green I), B. divergens; assay type: cell-based, Babesia divergens; details: Babesia divergens, read-out: IC50 (S.D.), B. divergens
Protocol: (§1) The P. falciparum strains 3D7 and Dd2 were obtained from the Walter and Eliza Hall Institute (Melbourne, Australia) and the Malaria Research and Reference Reagent Resource, respectively. […] B. divergens parasites were maintained and assayed in mixed stages without synchronization.
(§2) Ring-stage P. falciparum (1%-parasitemia starting, 1%-hematocrit) and asynchronous B.divergens (0.5%-parasitemia starting, 3%-hematocrit) were incubated with plated compounds for 72h, and ring-stage P. knowlesi (1%-parasitemia starting, 1%-hematocrit) for 48h, before lysis and staining with dye. To quantify the species-specificity of the inhibitors, we divided the range of IC50s across the 4 test lines by the average IC50 across the same lines: inhibitors with increased scores show species-specific activity and reduced scores indicate broad-spectrum, pan-species activity.

P. knowlesi YH1 strain = experiment: microbe, parasite or virus in culture; assay type: cell-based, Plasmodium knowlesi; details: for IC50: Plasmodium knowlesi, 48 h, read-out: IC50 (S.D.), P. knowlesi
Protocol: as §1, §2

P. falciparum strain 3D7 = experiment: Inhibitor susceptibility dose-response assay (SYBR-Green I), P. falciparum 3D7; assay type: cell-based, Plasmodium falciparum; details: Plasmodium falciparum, read-out: IC50 (S.D.), P. falciparum-3D7
Protocol: as §1, §2

P. falciparum strain Dd2 = experiment: Inhibitor susceptibility dose-response assay (SYBR-Green I), P. falciparum Dd2; assay type: cell-based, Plasmodium falciparum; details: Plasmodium falciparum, read-out: IC50 (S.D.), P. falciparum-Dd2
Protocol: as §1, §2

uninfected RBCs [2] = experiment: Cellular phosphatidylserine exposure assay (annexin V flow cytometry);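 as to all read-outs here: flow cytometry recording 10,000 events per condition, gated on single cells, with the two experiments using blood from separate donors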; details: for PS exposure on RBCs, in words: 5x P. falciparum 3D7-IC50, 24, 48, 72h
in vitro = details: human
RBC = RBC assay: PS exposure ref PMID 21063113; read-out: Micromolar IC50 (RBC), PS exposure; cited from earlier work
uninfected RBCs [3] = details: 5x P. falciparum 3D7-IC50; 24, 48, 72h
P. falciparum (3D7) = experiment: Assay for inhibition of parasite proliferation via RBC-targeting (transient exposure of RBCs, wash, then infection); assay type: cell-based, Plasmodium falciparum; details: for inhibitory activity following transient exposure of RBCs, in words: transient vs continued exposure, dose-response format where stated, n=3
Protocol: All plates were frozen for storage before assay. For assay, duplicate plates were preincubated with donor O+ RBCs at 2% hematocrit at 37°C in 50µL for 4-5 hours. Following preincubation, one but not the other plate in each pair was washed 4X in complete RPMI to dilute inhibitor. We transferred RBCs from both washed and unwashed plates to black, clear bottom 96-well plates (Corning Cat. No. 3904) and supplemented these suspensions with MACS-purified P. falciparum (3D7) schizonts for a starting parasitemia of 0.1% - 0.25% at 1% hematocrit. Following 72h incubation in standard culture conditions, samples were processed for SYBR-Green I signal ([Mandt et al., 2019]). […] To identify host-targeting compounds, we compared DMSO-treated to inhibitor-treated samples (Students t-test, paired). We carried out the assay with 1 µM mefloquine (Sigma-Aldrich Cat. No. M2319) as a control for reversible inhibition. All assays were conducted in biological triplicate, with each experiment utilizing different donor RBCs. For select compounds, we carried out this same assay in a dose-response series (n=3 experiments). Following normalization to DMSO-controls, we assessed inhibitor activity following transient exposure of RBCs by Two-Way ANOVA tests for repeated measures (Graphpad Prism v9): high P values indicate support for the null hypothesis that dose-dependent inhibition is not modulated by dilution after exposure, consistent with a direct inhibitory effect of the compounds on RBCs persisting after transient exposure.

P. falciparum 3D7 = experiment: Co-administration with established antimalarials, IC50 shift; assay type: cell-based, Plasmodium falciparum; details: P<0.05
Text: Our experimental compound set is weighted toward kinase inhibitors, reflecting the high degree of small molecule development in this target space.

[4] = 72h, asynchronous, n=3 experiments (or 2 where indicated with *)
[5] = 24h, 5x P. falciparum 3D7-IC50, % of RBCs, mean of 2 experiments
[6] = 5x P. falciparum 3D7-IC50, % of RBCs, mean of 2 experiments
[7] = 72h, 5x P. falciparum 3D7-IC50, % of RBCs, mean of 2 experiments
[8] = 3D7, 72h, ring-stage, n=3 experiments (or 2 where indicated with *)
[9] = uninfected RBCs (red blood cells), 1% hematocrit
[10] = DD2, 72h, ring-stage, n=3 experiments (or 2 where indicated with *)

SMILES	IC50 ([1]; 72 h)	IC50 (P. knowlesi YH1 strain)	IC50 (P. falciparum strain 3D7; 3D7, 72 h)	IC50 (P. falciparum strain Dd2; DD2, 72 h)	Phosphatidylserine exposure (%) 24h (uninfected RBCs [2]; [5])	Phosphatidylserine exposure (%) 48h (uninfected RBCs [2]; [6])	Phosphatidylserine exposure (%) 72h (uninfected RBCs [2]; [7])	hemolysis at 24 h, 5 x P. falciparum 3D7-IC50 (in vitro; [9])	hemolysis at 48 h, 5 x P. falciparum 3D7-IC50 (in vitro; [9])	hemolysis at 72 h, 5 x P. falciparum 3D7-IC50 (in vitro; [9])	further results
CCn1c2ccccc2c2cc(-n3nncc3-c3ccccc3)ccc21 [MBQ-167]	40 µM	38 µM	33 µM	23 µM	–	–	–	–	–	–	–
Nc1nc(N)c2nc(-c3cccc(O)c3)c(-c3cccc(O)c3)nc2n1 [TG-100-115]	–	0.8 µM	–	–	2%	3%	5%	-1%	12%	18%	IC50 [1, 4]: 13 µM; PS exposure on RBCs, in words (uninfected RBCs [2]): similarly low levels; antiparasitic activity in vitro, in words, P. knowlesi (P. knowlesi YH1 strain; P. knowlesi): submicromolar activity; activity against P. knowlesi stronger than against the other parasite species (P. knowlesi YH1 strain; P. knowlesi vs other parasite species): ~ 10 x; IC50 (P. falciparum strain 3D7; [8]): 9 µM; IC50 (P. falciparum strain Dd2; [10]): 7 µM
O=C1Nc2ccc(I)cc2/C1=C/c1cc(Br)c(O)c(Br)c1 [GW5074]	30 µM	10 µM	19 µM	13 µM	–	–	–	–	–	–	–
CCCCCCCCc1ccc(CCC(N)(CO)CO)cc1 [FTY720]	14 µM	2.2 µM	3.9 µM	3.5 µM	4%	21%	34%	4%	23%	25%	IC50 (RBC): 5 to 10 µM
COc1ccc2c(c1)CCC1C2CCC2(C)C(NCCCCCCN3C(=O)C=CC3=O)CCC12 (stereo not drawn) [U-73122]	–	4.4 µM	–	–	5%	9%	11%	-3%	16%	13%	hemolysis of RBCs, in words (uninfected RBCs [3]): lower levels; IC50 [1, 4]: 20 µM; antimalarial activity retained after transient exposure of RBCs, relative to continuous exposure to inhibitor (P. falciparum (3D7); 5x P. falciparum 3D7-IC50, RBC preincubation 4-5 hours then washed, 100% = inhibition with continuous exposure, P<0.01): ≥ 80%; inhibitory activity following transient exposure of RBCs, in words (P. falciparum (3D7)): statistically indistinguishable from inhibition with continued exposure; PS exposure on RBCs, in words (uninfected RBCs [2]): lower levels; IC50 (P. falciparum strain 3D7; [8]): 4 µM; IC50 (P. falciparum strain Dd2; [10]): 5 µM
O=C(O)C1=CC(=C(c2ccc(O)c(C(=O)O)c2)c2ccc(O)c(C(=O)O)c2)C=CC1=O [Aurintricarboxylic acid (ATA), Aurintricarboxylic acid]	29 µM	–	37 µM	44 µM	–	–	–	–	–	–	–
Cc1ccc(NC(=O)c2ccc(CN3CCN(C)CC3)cc2)cc1Nc1nccc(-c2cccnc2)n1 [Imatinib mesylate]	–	–	–	–	2%	2%	–	-2%	2%	7%	Phosphatidylserine exposure (%) 72h (uninfected RBCs [2]): 4%
O=C(O)/C=C/c1cc(Br)c(Br)c(Br)c1Br [Tetrabromocinnamic acid]	> 80 µM	> 80 µM	> 100 µM	> 85 µM	–	–	–	–	–	–	–
CN(C)C[C@@H]1CCn2cc(c3ccccc32)C2=C(C(=O)NC2=O)c2cn(c3ccccc23)CCO1 [Ruboxistaurin]	–	3 µM	–	–	2%	2%	6%	-1%	6%	14%	IC50 [1, 4]: 2.8 µM; PS exposure on RBCs, in words (uninfected RBCs [2]): similarly low levels; IC50 (P. falciparum strain 3D7; [8]): 0.9 µM; reduction in the IC50 of chloroquine in combination with fixed, sublethal dose of test compound (P. falciparum 3D7): ≤ 2 fold; IC50 (P. falciparum strain Dd2; [10]): 0.9 µM
OC(c1cc(C(F)(F)F)nc2c(C(F)(F)F)cccc12)C1CCCCN1 (stereo not drawn) [mefloquine]	–	–	–	–	–	–	–	–	–	–	inhibitory activity following transient exposure of RBCs, in words (P. falciparum (3D7)): does not retain antimalarial activity at any dose
CC(C)CC(O)(CC(C)C)c1cnn(C(=O)N2CCCC2)n1 [AA74-1]	4 µM	–	0.25 µM	0.5 µM	–	2%	–	–	–	–	Phosphatidylserine exposure (%) 24h (uninfected RBCs [2]): 1%; Phosphatidylserine exposure (%) 72h (uninfected RBCs [2]): 5%; hemolysis at 24 h, 5 x P. falciparum 3D7-IC50 (in vitro): -6%; hemolysis at 48 h, 5 x P. falciparum 3D7-IC50 (in vitro): -1%; hemolysis at 72 h, 5 x P. falciparum 3D7-IC50 (in vitro): 2%
Nc1ccc(C2CCN(C(=O)c3ccc(Oc4ccc(C(F)(F)F)cc4)cc3)CC2)nn1 [BI 749327]	30 µM	40 µM	25 µM	22 µM	–	–	–	–	–	–	–
COC[C@H]1Cn2cc(-c3nc(Nc4ccnn4C)ncc3C)nc2C(=O)N1Cc1ccc(F)c(F)c1 [AZD0364]	16 µM	–	16 µM	13 µM	–	–	–	–	–	–	–
Clc1ccc(C(c2ccc(Cl)cc2)n2cc[n+](CC(OCc3ccc(Cl)cc3Cl)c3ccc(Cl)cc3Cl)c2)cc1 (stereo not drawn) [Calmidazolium]	1.2 µM	0.6 µM	0.5 µM	0.6 µM	3%	4%	9%	-6%	7%	14%	–
Cn1nccc1Nc1nccc(-c2cc3c(s2)C(C)(C)N(CCN2CCOCC2)C3=O)n1 [LY3214996]	10 µM	6 µM	5.2 µM	5.7 µM	2%	2%	5%	-1%	13%	16%	–
